Experimental data from patent US20060247266A1, “Nitrogen-containing tricyclic compounds” (Asahi Kasei Pharma Corporation, priority 2004, published 2006).

How the values were obtained:
[1] = test system: trachea; assay: Tracheal relaxation action (Test Example 11); design: species or system Hartley guinea pigs; conditions: constricted with 10 μM histamine
Experimental: Hartley guinea pigs (male, 300 to 600 g) were bled to death, and each trachea was extracted. The trachea was first cut on the pair of smooth muscles side along the direction parallel to the smooth muscles, then cut along the cartilage to prepare a sample in the form of a strip having a width of about 2 to 3 mm. After removing […], the sample was suspended with a static load of […] in a Magnus bath containing Krebs-Henseleit solution of 37° C. bubbled with a mixed gas of 95% O2 and 5% CO2. Generated tension was recorded on a recorder via an isometric transducer (FD Pickup TB-612T, Nihon Kohden).
After suspending the sample, and waiting for 1 hour or more until a stable ground line was obtainable, a constriction substance was administered, and then the experiment was started after reproducible constriction was obtainable. During this procedure, the solution in the Magnus bath was changed every about 30 minutes. The sample was constricted with 10 μM histamine, and after the time point that the generated tension was stabilized, a test drug was cumulatively administered at various concentrations to examine change in tension of the sample.

[2] = test system: lipopolysaccharide-induced inflammation; assay: Acute respiratory tract inflammation suppressing action (Test Example 8); type: in vivo, BALB/c female mice; conditions: LPS inhalation; for acute respiratory tract inflammation, total infiltrated leucocyte number (WBC): test compound by infusion pump; for acute respiratory tract inflammation, total infiltrated leucocyte (WBC) number: test compound by nebulizer inhalation over 10 minutes
Text: According to Gonzales de Moraes, V L., et al., Br. J. Pharmacol., 123, pp. 631-6, 1998, suppressing action on pulmonary inflammation was studied. BALB/c female mice (7-week old) were used for the test, as the compound administration group and positive control group, each consisting of 7 mice, as well as the negative control group consisting of 5 mice. For induction of inflammation, a 0.03% physiological saline solution of a lipopolysaccharide (LPS, a mixture derived from Escherichia coli O55 and B5 strains, Sigma) was used. A test compound was dissolved in physiological saline to prepare solutions of various concentrations. […] Then, 1 minute after the completion of the inhalation of the lipopolysaccharide solution, the animals were administered with a solution of test compound at various concentrations over 10 minutes by inhalation using the aforementioned nebulizer. The mice of the positive control group were administered with the same volume of physiological saline instead of the test compound solution over 10 minutes by inhalation. The mice of the negative control group were inhaled with physiological saline instead of the lipopolysaccharide solution by inhalation, and then administered with the same volume of physiological saline instead of the test compound solution by inhalation. Three hours after the administration of the test compound, pulmonary cavities of the test animals were washed with physiological saline, and the total infiltrated leucocyte (WBC) number was counted.
Further, after starting the administration of the test compound solution by using an infusion pump, the mice of the drug administration group was inhaled with the lipopolysaccharide solution over 10 minutes by the aforementioned method to induce inflammation. At the same time, the mice of the positive control group were administered with the same volume of physiological saline instead of the test compound, and inflammation was induced by the aforementioned method. For the mice of the negative control group, the same procedure was performed by using physiological saline instead of the test compound, and physiological saline instead of the lipopolysaccharide solution. Three hours after the induction of respiratory tract inflammation, pulmonary cavities of the test animals were washed with physiological saline, and the total infiltrated leucocyte number (WBC) was counted.

[3] = test system: thoracic aorta; assay: Vasoconstriction inhibitory action (Test Example 2); design: species or system Rats (Wistar); conditions: aorta constricted with phenylephrine (1 μM), test compound (1 μM)
Text: Rats (Wistar, 11-week old) were bleeded to death and laparotomized to take out the thoracic aorta. That aorta was cut into a ring of a length of about 3 mm in a conventional manner (Asano, T., et al., J. Pharmacol. Exp. Ther., 241, pp. 1033-1040 (1987)) and hung in 10-ml organ bath filled with Krebs-Hensright nutrient solution bubbled with a mixed gas of 95% O2 and 5% CO2. One end of the blood vessel was connected to an isometric transducer (FD Pickup TB-912T, Nihon Kohden) and applied with 2.5 g of resting tension, and constriction and relaxation reactions of the aorta were recorded.
The aorta was constricted with phenylephrine (1 μM, Sigma) and then added with a test compound (1 μM), and the vasoconstriction inhibitory action thereof was observed. The vasoconstriction inhibitory actions of the test compounds were calculated as relaxation ratios, which were based on the vasoconstriction with phenylephrine observed immediately before the addition of the test compounds taken as 100%.

[4] = test system: OVA-induced respiratory tract inflammation; assay: Chronic respiratory tract inflammation suppressing action (Test Example 7); type: in vivo, BALB/c female mice; conditions: administration by infusion pump once a day for 5 days
Experimental: According to Henderson, W. R., et al., Am. J. Respir. Cric. Care Med., 165(1), 108-116 (2002), suppressing action on bronchial inflammation was confirmed. BALB/c female mice (7-week old) were used for the test, which were grouped into a negative control group, a positive control group, and a drug administration group. The mice of each group were intraperitoneally administered with ovalbumin (OVA, 100 ng, Sigma) and 1 mg of aluminum hydroxide for initial immunization, and after 2 weeks, they are subcutaneously administered with 10 μg of OVA as additional immunization. In the following experiments, test compounds are used as a solution obtained by dissolving each compound in water containing 0.5% carboxymethylcellulose. […]
Twenty four hours after the final OVA inhalation or inhalation of physiological saline, pulmonary cavities of the test animals were washed with physiological saline containing 1% BSA, and the total infiltrated white blood cells (WBC) were counted. […]
Twenty four hours after the final drug administration, pulmonary cavities of the test animals were washed with physiological saline, and the total infiltrated white blood cells (WBC) were counted.

[5] = test system: intraocular pressure; assay: Intraocular pressure reduction enhancing action, combination with jointly-used drug (Test Example 13, rabbits); type: in vivo; conditions: jointly-used drug isopropylunoprostone, dorzolamide hydrochloride, bunazosin hydrochloride or timolol maleate
Text: For evaluation of intraocular pressure reduction enhancing action of a combination of the compound of the present invention and a jointly-used drug other than latanoprost, rabbits were used as experimental animals, and for evaluation of intraocular pressure reduction enhancing action of a combination of the compound of the present invention and latanoprost, monkeys were used. Naturalization of the rabbits, method for measuring intraocular pressure, and preparation of liquid for eye drop were according to those of Test Example 4. The rabbits were divided into a control group, instillation group for test compound solution alone (single active ingredient preparation group 1), instillation group for jointly-used drug alone (single active ingredient preparation group 2), and instillation group for jointly-used drug and test compound solution (combination use group). After initial values of intraocular pressure of the rabbits in each group were measured, 50 μL of a test compound solution in physiological saline at various concentrations was dropped to the eyes of the rabbits of the single active ingredient preparation group 1 and the combination use group, and physiological saline of the same volume was dropped to the eyes of the rabbits of the control group and the single active ingredient preparation group 2. […] Then, the intraocular pressure was measured in time course for each group. […]

[6] = test system: cerebral hippocampal neurons; assay: Neurite outgrowth action (Test Example 5); type: cell-based, Sprague-Dawley rats; conditions: neurite length 24 hours after addition
Experimental: From 18 day-old Sprague-Dawley rats, cerebral hippocampal neurons were prepared according to the method of Neuman et al. (Neuman, H. R. et al., J. Neurosci., 22, pp. 854-862, 2002). The prepared neurons were cultured for 24 hours according to the method of Tanaka et al. (Tanaka, H. et al., J. Cell Biol., 158 (2), pp. 321-329, 2002), then the medium was exchanged with fresh medium, and test medicaments of various concentrations or equivalent amounts of vehicle were added. Twenty-four hours after the addition of the medicaments, neurite length of each neuron was measured for the medicament-added group and the no-addition group, and compared. The neurite length was evaluated according to the method of Neuman et al. (Neuman, H. R. et al., J. Neurosci., 22, pp. 854-862, 2002).

[7] = test system: respiratory tract constriction induced by ovalbumin; assay: Action of suppressing respiratory tract constriction induced by antigen stimulation (Test Example 3); type: in vivo, Hartley guinea pigs; conditions: for respiratory tract constriction suppression action by inhalation: 0.1% ovalbumin inhalation, test compound by nebulizer inhalation over 5 minutes; for respiratory tract constriction suppressing action: ovalbumin-immunized guinea pigs, test medicament from cannula in hind leg vein, airway resistance for 15 minutes
[8] = test system: histamine-induced constriction of respiratory tract; assay: Action of suppressing respiratory tract constriction induced by constriction elicitor (Test Example 12); type: in vivo, Hartley guinea pigs; conditions: 100 μl test compound solution sprayed onto the respiratory tract
[9] = test system: intraocular pressure; assay: Intraocular pressure reducing action (Test Example 4); type: in vivo, Japanese white rabbit; conditions: 50 μl of aqueous solution dropped to the left eye
Experimental: A Japanese white rabbit having a body weight of about 2 kg was placed in a positioner and naturalized for one week before the experiment. An ophthalmologic local anesthesant (Benoxil) was administered to the left eye, and then intraocular pressure was measured by using a tonometer (Classic 30, Solan). The initial value of the intraocular pressure was measured, then 50 μl of an aqueous solution of a test compound was dropped to the left eye at various concentrations, and the intraocular pressure was measured with passage of time.

Row | Compound | suppression of constriction of the trachea sample [1] | acute respiratory tract inflammation, total infiltrated leucocyte number (WBC) [2] | acute respiratory tract inflammation, total infiltrated leucocyte (WBC) number [2] | vasoconstriction inhibitory action [3] | chronic respiratory tract inflammation, total infiltrated white blood cells (WBC) [4] | intraocular pressure reducing action, combination use group versus single active ingredient preparation groups 1 and 2 [5] | neurite outgrowth [6] | respiratory tract constriction suppression action by inhalation [7] | respiratory tract constriction suppressing action [7] | suppression of constriction of respiratory tract induced by histamine [8] | intraocular pressure reducing action [9]
1 | FC1CNCCC1N1CCc2cncc3cccc1c23 (stereo not shown) | significantly suppressed constriction of the trachea sample | significantly improved the pathological conditions | significantly improved the pathological conditions | had vasoconstriction inhibitory action | significantly improved the pathological conditions | Enhancement of the intraocular pressure reducing action was also confirmed | induced significant neurite outgrowth | significantly improved the constriction of respiratory tract | significant respiratory tract constriction suppressing action | significantly suppressed the constriction of respiratory tract | significant intraocular pressure reducing action
2 | CN(CCO)C1CCC(N2CCc3cncc4cccc2c34)CC1 (stereo not shown) | significantly suppressed constriction of the trachea sample | significantly improved the pathological conditions | significantly improved the pathological conditions | had vasoconstriction inhibitory action | significantly improved the pathological conditions | Enhancement of the intraocular pressure reducing action was also confirmed | induced significant neurite outgrowth | significantly improved the constriction of respiratory tract | significant respiratory tract constriction suppressing action | significantly suppressed the constriction of respiratory tract | significant intraocular pressure reducing action
